Measurements as given in patent publication US10000496B2, “Compositions useful for treating disorders related to kit and PDGFR” (BLUEPRINT MEDICINES CORPORATION, priority 2015, dated 2018).

Legend:
D816V Kit = molecular target: T1, D816V Kit (Homo sapiens, UniProt P10721, D816V); test: Kit D816V assay at Km (Caliper electrophoretic mobility shift); conditions: D816V Kit 0.5 nM, 15 uM ATP (Km), 1 uM Srctide, 25 C, 90 minutes; read-out: Biochemical Activity D816V IC50
T1 construct: purchased Carna Bioscience 08-156
T1 sequence (P10721 26-976 D816V): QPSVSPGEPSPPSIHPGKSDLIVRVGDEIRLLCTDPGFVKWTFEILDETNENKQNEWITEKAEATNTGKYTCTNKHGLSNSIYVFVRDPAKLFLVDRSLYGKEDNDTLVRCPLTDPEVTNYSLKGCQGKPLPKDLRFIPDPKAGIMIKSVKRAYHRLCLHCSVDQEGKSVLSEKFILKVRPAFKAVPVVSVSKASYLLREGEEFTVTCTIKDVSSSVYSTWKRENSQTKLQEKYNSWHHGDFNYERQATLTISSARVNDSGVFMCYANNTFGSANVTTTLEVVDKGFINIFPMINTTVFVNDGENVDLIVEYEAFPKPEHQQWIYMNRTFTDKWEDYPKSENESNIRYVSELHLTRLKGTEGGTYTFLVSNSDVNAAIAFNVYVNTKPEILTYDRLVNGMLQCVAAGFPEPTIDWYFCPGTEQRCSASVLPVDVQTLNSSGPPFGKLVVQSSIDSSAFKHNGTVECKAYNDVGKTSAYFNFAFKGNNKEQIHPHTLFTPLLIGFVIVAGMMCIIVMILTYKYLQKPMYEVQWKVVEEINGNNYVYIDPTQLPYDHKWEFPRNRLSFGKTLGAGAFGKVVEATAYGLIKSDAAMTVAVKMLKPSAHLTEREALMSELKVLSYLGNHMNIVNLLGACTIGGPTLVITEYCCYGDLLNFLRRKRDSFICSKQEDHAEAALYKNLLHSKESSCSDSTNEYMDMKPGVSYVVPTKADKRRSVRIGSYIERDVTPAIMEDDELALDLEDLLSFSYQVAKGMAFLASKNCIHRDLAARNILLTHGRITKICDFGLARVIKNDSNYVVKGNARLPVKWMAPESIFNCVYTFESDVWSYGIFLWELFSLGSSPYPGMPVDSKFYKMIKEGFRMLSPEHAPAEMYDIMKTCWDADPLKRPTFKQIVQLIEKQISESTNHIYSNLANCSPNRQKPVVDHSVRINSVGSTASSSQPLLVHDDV
Procedure: In order to assess the activity of chemical compounds against the relevant kinase of interest, the Caliper LifeSciences electrophoretic mobility shift technology platform is used. Fluorescently labeled substrate peptide is incubated in the presence of kinase and ATP so that a […] proportion of the peptide is phosphorylated. At the end of the reaction, the mix of phosphorylated (product) and non-phosphorylated (substrate) peptides are passed through the microfluidic system of the Caliper EZ Reader 2, under an applied potential difference. The presence of the phosphate group on the product peptide provides a difference in mass and charge between those of the substrate peptide, resulting in a separation of the substrate and product pools in the sample. As the pools pass a LEDS within the instrument, these pools are detected and resolved as separate peaks. The ratio between these peaks therefore reflects the activity of the chemical matter at that concentration in that well, under those conditions.
Kit D816V assay at Km: In each well of a 384-well plate, 0.04 ng/ul (0.5 nM) of D816V Kit (Carna Bioscience 08-156) was incubated in a total of 12.5 ul of buffer (100 mM HEPES pH 7.5, 0.015% Brij 35, 10 mM MgCl2, 1 mM DTT) with 1 uM Srctide (5-FAM-GEEPLYWSFPAKKK-NH2) and 15 uM ATP at 25 C for 90 minutes in the presence or absence of a dosed concentration series of compound (1% DMSO final concentration). The reaction was stopped by the addition of 70 ul of Stop buffer (100 mM HEPES pH 7.5, 0.015% Brij 35, 35 mM EDTA and 0.2% of Coating Reagent 3 (Caliper Lifesciences)). The plate was then read on a Caliper EZReader 2 (protocol settings:—1.9 psi, upstream voltage—700, downstream voltage—3000, post sample sip 35s). Data was normalized to 0% and 100% inhibition controls and the IC50 or EC50 calculated using a 4-parameter fit using GraphPad Prism.

[1] = molecular target: T2, Kit D816V in HMC1.2 cells (Homo sapiens, UniProt P10721, D816V/V560G); test: HMC1.2 autophosphorylation assay (Kit autophosphorylation at tyrosine 719, AlphaLISA); format: cell-based; conditions: HMC1.2 mast cell leukemia cells (Kit V560G and D816V), phospho-Y719 c-Kit, 90 minutes; read-out: Cellular Activity IC50
T2 construct: endogenous in cells; host or cells: HMC1.2
T2 sequence (P10721 26-976 V560G/D816V): as the sequence (P10721 26-976 D816V) above, with V535G counted along it
Procedure: 10,000 HMC1.2 cells were incubated in 22 ul culture media (phenol-red free IMDM, no serum) in each well of a 384-well plate and serum starved overnight in a tissue culture incubator (5% CO2, 37° C.). A 10-point dose concentration series of compound (25 uM-95.4 pM) were then added to the cells in a volume of 3.1 ul to each well (0.25% DMSO final concentration). After 90 minutes, 6 ul of 5× AlphaLISA Lysis Buffer (Perkin Elmer) supplemented with a protease and phosphatase inhibitor cocktail (Cell Signaling Technologies) was added to each well and shaken at 450 rpm for 15 minutes at 4° C. 10 ul of phospho-Y719 c-Kit and total c-Kit antibodies (15 nM final concentration, Cell Signaling Technologies) and 50 ug/ml AlphaLISA rabbit acceptor beads (Perkin Elmer) were added to each well and shaken at 300 rpm at room temperature for 2 hours. 10 ul of 100 ug/ml streptavidin donor beads (Perkin Elmer) were added to each well, blocked from light with aluminum adhesive and shaken at 300 rpm at room temperature for 2 hours. Fluorescence signal was obtained on Envision (Perkin Elmer) by AlphaScreen 384 well HTS protocol. Data was normalized to 0% and 100% inhibition controls and the IC50 was calculated using Four Parameter Logistic IC50 curve fitting.
This cell line contains Kit mutated at positions V560G and D816V resulting in constitutive activation of the kinase. The following compounds were tested in an assay to measure direct inhibition of Kit D816V kinase activity by assaying Kit autophosphorylation at tyrosine 719 on the Kit protein.

Structure (SMILES)	IC50 (D816V Kit) [nM]	IC50 [1] [nM]
Cn1cc(-c2cc3c(-c4ccc(NS(C)(=O)=O)cc4)ncnn3c2)cn1 [Compound 1]	1.01 to 10	1000 to 10000
CC(C)S(=O)(=O)Nc1ccc(-c2ncnn3cc(-c4cnn(C)c4)cc23)cc1 [Compound 2]	10 to 100	> 10000
Cn1cc(-c2cc3c(-c4ccc(NC(=O)Cc5ccccc5)cc4)ncnn3c2)cn1 [Compound 3]	1.01 to 10	10 to 100
Cn1cc(-c2cc3c(-c4ccc(NC(=O)Cc5cccnc5)cc4)ncnn3c2)cn1 [Compound 4]	1.01 to 10	1000 to 10000
Cn1cc(-c2cc3c(-c4ccc(NC(=O)Cc5ccccn5)cc4)ncnn3c2)cn1 [Compound 5]	10 to 100	1000 to 10000
Cn1cc(CC(=O)Nc2ccc(-c3ncnn4cc(-c5cnn(C)c5)cc34)cc2)cn1 [Compound 6]	10 to 100	1000 to 10000
Cn1cc(-c2cc3c(-c4ccc(NC(=O)c5ccc(C#N)cc5)cc4)ncnn3c2)cn1 [Compound 7]	10 to 100	
Cc1ccc(CC(=O)Nc2ccc(-c3ncnn4cc(-c5cnn(C)c5)cc34)cc2)cc1 [Compound 8]	1.01 to 10	10 to 100
Cn1cc(-c2cc3c(-c4ccc(NC(=O)NCc5ccccc5)cc4)ncnn3c2)cn1 [Compound 9, 1-benzyl-3-(4-(6-(1-methyl-1H-pyrazol-4-yl)pyrrolo[1,2-f][1,2,4]triazin-4-yl)phenyl)urea]	10 to 100	100 to 1000
Cn1cc(-c2cc3c(-c4ccc(NC(=O)C(O)c5ccccc5)cc4)ncnn3c2)cn1 (centres unmarked) [Compound 10]	< 1	
Cn1cc(-c2cc3c(-c4ccc(NC(=O)Cc5ccc(F)cc5)cc4)ncnn3c2)cn1 [Compound 11]	1.01 to 10	10 to 100
Cn1cc(-c2cc3c(-c4ccc(NC(=O)c5ccc(Cl)cc5)cc4)ncnn3c2)cn1 [Compound 12]	> 100	
Cn1cc(-c2cc3c(-c4ccc(NS(=O)(=O)c5ccccc5)cc4)ncnn3c2)cn1 [Compound 13]	1.01 to 10	100 to 1000
CN(C)C(=O)c1ccc(-c2cc3c(-c4ccc(NS(C)(=O)=O)cc4)ncnn3c2)cc1 [Compound 14]	1.01 to 10	100 to 1000
COC(C(=O)Nc1ccc(-c2ncnn3cc(-c4cnn(C)c4)cc23)cc1)c1ccccc1 (centres unmarked) [Compound 15]	1.01 to 10	
CS(=O)(=O)Nc1ccc(-c2ncnn3cc(-c4ccc(S(C)(=O)=O)cc4)cc23)cc1 [Compound 16]	1.01 to 10	100 to 1000
Cn1cc(-c2cc3c(-c4ccc(NC(=O)Cc5ccc(Cl)cc5)cc4)ncnn3c2)cn1 [Compound 17]	1.01 to 10	10 to 100
Cn1cc(-c2cc3c(-c4ccc(NC(=O)Cc5cccc(Cl)c5)cc4)ncnn3c2)cn1 [Compound 18]	1.01 to 10	100 to 1000
Cn1cc(-c2cc3c(-c4ccc(NC(=O)Cc5ccccc5Cl)cc4)ncnn3c2)cn1 [Compound 19]	1.01 to 10	100 to 1000
Cn1cc(-c2cc3c(-c4ccc(NC(=O)Cc5ccc(Cl)nc5)cc4)ncnn3c2)cn1 [Compound 20]	1.01 to 10	10 to 100
Cn1cc(-c2cc3c(-c4ccc(NC(=O)Nc5ccc(Cl)cc5)cc4)ncnn3c2)cn1 [Compound 21]	> 100	
Cc1ccc(S(=O)(=O)Nc2ccc(-c3ncnn4cc(-c5cnn(C)c5)cc34)cc2)cc1 [Compound 22]	1.01 to 10	10 to 100
Cn1cc(-c2cc3c(-c4ccc(NC(=O)Cc5c[nH]c6ccccc56)cc4)ncnn3c2)cn1 [Compound 23]	1.01 to 10	10 to 100
Cn1cc(-c2cc3c(-c4ccc(NS(=O)(=O)c5ccc(F)cc5)cc4)ncnn3c2)cn1 [Compound 24]	1.01 to 10	100 to 1000
Cn1cc(-c2cc3c(-c4ccc(NS(=O)(=O)CC5COCCO5)cc4)ncnn3c2)cn1 (centres unmarked) [Compound 25]	10 to 100	1000 to 10000
Cn1cc(-c2cc3c(-c4ccc(NS(=O)(=O)c5ccc(C#N)cc5)cc4)ncnn3c2)cn1 [Compound 26]	1.01 to 10	1000 to 10000
